{"source": "patent US20220178936A1", "about": "“A SENSITIVE LC-MS ASSAY TO MEASURE CURCUMINOIDS IN COMPLEX BIOLOGICAL SAMPLES” (THE REGENTS OF THE UNIVERSITY OF CALIFORNIA, priority 2019, published 2022)", "key": {"[1]": {"assay": "Curcuminoids in murine tumor, brain and liver after PHRAD 129", "conditions": "for signal in murine tumor extract: oral PHRAD 129, 100 mg/kg daily", "method": "Murine soft tissues. Mouse liver, brain, and tumor samples were collected from animals that had been administered a proprietary turmeric formulation (PHRAD 129, Aveta Biomics, Bedford, Mass.). After dissection, the tissues were weighed, frozen and stored at −80° C.\nThe samples were homogenized in a bead mill (thrice for 10 seconds each time at RT). The homogenate was vigorously mixed (5 min, RT), centrifuged (16,000 g, 5 min at RT), and the supernatant was transferred to microcentrifuge tubes and dried in a vacuum centrifuge. The dried samples were tightly capped and stored at −80° C."}, "[2]": {"conditions": "in vivo", "quoted_text": "(§1) Biological samples: Human plasma. […] The tubes were centrifuged (1000 g, 15 min), and plasma was collected and stored at −80° C.\n(§2) Extraction of human plasma samples and BF2 complex formation: Plasma samples were prepared in duplicate by transferring aliquots of human plasma (100 uL) to 1.5 mL microcentrifuge tubes. The internal standards (1 pmol d6C and 5 pmol d6TC in 10 uL of methanol) were added to each sample. They were briefly vortexed, then treated with cold 10 mM acetic acid in methanol (1 mL). After rigorous mixing, incubation (4° C., 60 min) and centrifugation (16,000 g, Rt, 5 min) supernatants were transferred to clean microcentrifuge tubes and dried in a vacuum centrifuge. The dried samples were tightly capped and stored in −80° C.\n(§3) Analysis of the blood collected at 0, 1, 2, 3, 4, and 5 hours after compound ingestion on Day 1 and 0, 1, 2, 3, and 4 hours on Day 17 was performed."}, "[3]": {"assay": "BF2-curcuminoid complex stability (hydrolysis, autosampler)", "type": "physicochemical", "method": "Complex stability: The BF2-curcumin complexes slowly hydrolyze in water and water/methanol mixtures with a half-life of a few hours at 4° C. For applicability to an LC/MS assay on biological samples containing amounts of curcuminoids as low as 50 fmol/sample, and using an aqueous chromatographic mobile phase, it was necessary to use conditions that minimized hydrolysis. This breakdown was slowed but not averted by storing the samples at even lower temperatures (−80° C.) prior to analysis. The breakdown of the derivatives was averted by performing the reaction in glacial acetic acid and directly injecting the reaction mixture onto the LC column. Even after the injection of hundreds of samples there has been no noticeable deterioration of chromatographic reliability. Furthermore, by using a short 10 minute chromatographic gradient the hydrolysis of the complexes during chromatography was minimized. The stability of BF2-curcuminoid complex was tested to validate the assay for overnight analysis. Eight QC-mid samples were prepared, stored tightly capped to minimize contact with atmospheric moisture in the autosampler at 20° C., and each sample was analyzed every hour for up to seven hours. Except for BF2-TC, the curcuminoid complexes were stable throughout the 7 hour test period with no significant decline in peak intensity (FIG. 4)."}, "[4]": {"assay": "In vivo temporal profile of plasma curcuminoids and metabolites in a human volunteer", "conditions": "Longvida four tablets daily for 17 consecutive days", "quoted_text": "as §1, §2, §3"}}, "note": "Like-named read-outs stand apart in the source and are kept apart here."}
{"molecule": "O=C(C=Cc1ccc(O)cc1)CC(=O)C=Cc1ccc(O[C@@H]2O[C@H](C(=O)O)[C@@H](O)[C@H](O)[C@H]2O)cc1", "note": "[BDMCG, bisdemethoxycurcumin glucuronide]", "values": [{"measurement": "signal in mouse brain extract", "setting": "[1]; mouse, in vivo", "value": "not detected"}, {"measurement": "signal in mouse liver extract", "setting": "[1]; mouse, in vivo", "value": "not detected"}, {"measurement": "signal in human plasma extract", "setting": "[2]", "value": "intense peaks"}]}
{"molecule": "COc1cc(C=CC2=CC(C=Cc3ccc(O)c(OC)c3)=[O+][B-](F)(F)O2)ccc1O", "note": "[BF2-C]", "values": [{"measurement": "hydrolysis half-life", "setting": "[3]; water and water/methanol mixtures, 4° C.", "value": "a few hours"}]}
{"molecule": "COc1cc(CCC2=CC(CCc3ccc(O)c(OC)c3)=[O+][B-](F)(F)O2)ccc1O", "note": "[BF2-TC]", "values": [{"measurement": "stability in autosampler (peak intensity)", "setting": "[3]; glacial acetic acid reaction mixture, 20° C., 7 hour test period, QC-mid", "value": "slight loss of signal intensity"}]}
{"molecule": "COc1cc(/C=C/C(=O)CC(=O)/C=C/c2ccc(O)c(OC)c2)ccc1O", "note": "[Curcumin, curcumin]", "values": [{"measurement": "signal in mouse brain extract", "setting": "[1]; mouse, in vivo", "value": "measurable peaks"}]}
{"molecule": "Demethoxycurcumin", "values": [{"measurement": "signal in mouse brain extract", "setting": "[1]; after PHRAD 129", "value": "measurable peaks"}, {"measurement": "signal in mouse liver extract", "setting": "[1]; after PHRAD 129", "value": "measurable peaks"}, {"measurement": "signal in murine tumor extract", "setting": "[1]", "value": "strong signals"}]}
{"molecule": "bisdemethoxycurcumin", "values": [{"measurement": "signal in mouse liver extract", "setting": "[1]; after PHRAD 129", "value": "measurable peaks"}, {"measurement": "signal in murine tumor extract", "setting": "[1]", "value": "strong signals"}]}
{"molecule": "demethoxycurcumin glucuronide [DMCG]", "values": [{"measurement": "signal in mouse brain extract", "setting": "[1]; after PHRAD 129", "value": "not detected"}, {"measurement": "signal in mouse liver extract", "setting": "[1]; after PHRAD 129", "value": "not detected"}, {"measurement": "signal in murine tumor extract", "setting": "[1]", "value": "not detected"}, {"measurement": "signal in human plasma extract", "setting": "[4]", "value": "intense peaks"}]}
{"molecule": "tetrahydrocurcumin", "values": [{"measurement": "signal in murine tumor extract", "setting": "[1]", "value": "strong signals"}]}
